Test results from patent US20250032525A1 (priority 2021, published 2025).
Read-outs that look alike come from different tables or passages of the source.

How the values were obtained:
SK-MEL-2 [1] = settings: SK-MEL-2, NCI-60 database, sulforhodamine B; read-out: Cytotoxic IC50; cited from earlier work
[2] = system: patient-derived lung adenocarcinoma xenografts; assay: Patient-derived xenograft (PDX) model; format: in vivo, NSG mice; settings: single treatment; LiPyDau 0.5 mg/kg, DOX 2 mg/kg, paclitaxel 12 mg/kg; 7 days
Description: A piece from the tumor tissue was transplanted subcutaneously into the right flank and propagated in NOD.Cg-Prkdc^scid Il2rg^tm1Wjl/SzJ (NSG) mice for 7 months. After the xenografted tumor reached 1000 mm^3, tumor pieces were retransplanted subcutaneously into the right flank of 20 additional NSG mice, which were given a single treatment with various chemotherapeutics or LiPyDau. Every treatment group consists of 5 animals. After daily monitoring of the tumor volume for one week, the mice were sacrificed and the cytotoxicity of the treatments was investigated on tissue slices by image analysis.
For treatment, tumor pieces were engrafted subcutaneously.

EKVX = settings: NCI-60 database, sulforhodamine B, read-out: Cytotoxic IC50; cited from earlier work
4T1-LUC mammary tumor = assay: Mouse 4T1 breast cancer model; format: in vivo, BALB/c mice; settings: 1 mg/kg LiPyDau, 5 mg/kg DOX, day 12 and 24; endpoint day 33
Description: Mouse melanoma (B16), lung (Lewis lung carcinoma, LLC) and breast (4T1-LUC) cancer cell lines were used to establish allograft tumors for drug testing. 5×10^5 B16 or 2×10^5 LLC cells were inoculated subcutaneously in 200 μl serum-free culture media. 4T1-LUC tumors were established by injecting 1×10^6 cells in 20 μl serum-free culture media through the nipple directly to the breast tissue of 8 weeks old BALB/c mice on day 0). […] For the B16, LLC and 4T1-LUC tumor models 4, 6 and 6 mice were treated with LiPyDau while 4, 3 and 6 animals were in the saline treated groups, respectively.
Growth of 4T1-LUC tumor was monitored by bioluminescence imaging. Images were taken 10 minutes after tail vein injection of 150 mg/kg dose of D-luciferin into the mouse.

A431-B1 = assay: In vitro cytotoxicity; format: cell-based
Text: (§1) Experiments were repeated at least 3 times.

MDA-MB-468 = assay: In vitro cytotoxicity; format: cell-based; settings: Homo sapiens; MDA-MB-468 breast cancer cell line
Text: as §1

A431 = assay: In vitro cytotoxicity; format: cell-based; settings: Homo sapiens, A-431
Text: as §1

P388/ADR = assay: In vitro cytotoxicity; format: cell-based; settings: Mus musculus
Text: as §1

P388 = assay: In vitro cytotoxicity; format: cell-based; settings: Mus musculus
Text: as §1

A431-G2 = assay: In vitro cytotoxicity; format: cell-based
Text: as §1

MES-SA/Dx5 xenografts = assay: MES-SA/Dx5 xenograft tumors in mice; format: in vivo, NSG mice; settings: multidrug resistant MES-SA/Dx5 tumors; DOX 2 mg/kg iv., LiPyDau 0.5 mg/kg iv. once per week
Description: 2×10^6 cells from each cell line in 200 μl serum-free culture media DMEM were inoculated into NOD.Cg-Prkdc^scid Il2rg^tm1Wjl/SzJ (NSG) mice subcutaneously in the left flank and treatment was initiated when tumors reached 200 mm^3. Mice were treated with saline (n=3 per each cell lines). […] The size of the tumors was measured every second day with a digital caliper.

HCT-15 = settings: HCT-15, NCI-60 database, sulforhodamine B; read-out: Cytotoxic IC50; cited from earlier work
HCC-2998 = settings: HCC-2998, NCI-60 database, sulforhodamine B; read-out: Cytotoxic IC50; cited from earlier work
BT-549 = settings: BT-549, NCI-60 database, sulforhodamine B; read-out: Cytotoxic IC50; cited from earlier work
CAKI-1 [3] = settings: CAKI-1, NCI-60 database, sulforhodamine B; read-out: Cytotoxic IC50; cited from earlier work
SK-MEL-28 = settings: SK-MEL-28, NCI-60 database, sulforhodamine B; read-out: Cytotoxic IC50; cited from earlier work
HS 578T = settings: NCI-60 database, sulforhodamine B, read-out: Cytotoxic IC50; cited from earlier work
Brcal^−/−;p53^−/− tumors = settings: cited from earlier work
OVCAR-5 [4] = settings: OVCAR-5, NCI-60 database, sulforhodamine B; read-out: Cytotoxic IC50; cited from earlier work
[5] = system: MCF-7 human breast adenocarcinoma cells; settings: reported by Mező; cited from earlier work
OVCAR-5 [6] = assay: In vitro cytotoxicity (PrestoBlue); format: cell-based; settings: Homo sapiens, OVCAR-5, 72 h; read-out: Cytotoxic IC50
Text: as §1

CAKI-1 [7] = assay: In vitro cytotoxicity (PrestoBlue); format: cell-based; settings: Homo sapiens, CAKI-1, 72 h; read-out: Cytotoxic IC50
Text: as §1

SK-MEL-2 [8] = assay: In vitro cytotoxicity (PrestoBlue); format: cell-based; settings: Homo sapiens, SK-MEL-2, 72 h; read-out: Cytotoxic IC50
Text: as §1

DU-145 = assay: In vitro cytotoxicity (PrestoBlue); format: cell-based; settings: Homo sapiens, DU-145, 72 h; read-out: Cytotoxic IC50
Text: as §1

PC-3 = assay: In vitro cytotoxicity (PrestoBlue); format: cell-based; settings: Homo sapiens, PC-3, 72 h; read-out: Cytotoxic IC50
Text: as §1

NCI/ADR-RES = assay: In vitro cytotoxicity (PrestoBlue); format: cell-based; settings: Homo sapiens, 72 h, read-out: Cytotoxic IC50
Text: as §1

OVCAR-3 = assay: In vitro cytotoxicity (PrestoBlue); format: cell-based; settings: Homo sapiens, OVCAR-3, 72 h; read-out: Cytotoxic IC50
Text: as §1

A498 = assay: In vitro cytotoxicity (PrestoBlue); format: cell-based; settings: Homo sapiens, A498, 72 h; read-out: Cytotoxic IC50
Text: as §1

MDA-MB-435 = assay: In vitro cytotoxicity (PrestoBlue); format: cell-based; settings: Homo sapiens, MDA-MB-435, 72 h; read-out: Cytotoxic IC50
Text: as §1

COc1cccc2c1C(=O)c1c(O)c3c(c(O)c1C2=O)C[C@@](O)(C(=O)CO)C[C@@H]3O[C@H]1C[C@H](N)[C@H](O)[C@H](C)O1 [DOX, doxorubicin]
IC50 (SK-MEL-2 [1]): 0.237 µM | Tumor growth [2]: failed to exert any effect on tumor growth | IC50 (EKVX): 0.484 µM | Tumor growth / tumor cell viability (4T1-LUC mammary tumor): small but significant effect on the growth of tumors | IC50 (A431-B1): 2.45 µM | IC50 (MDA-MB-468): 0.02 µM | IC50 (A431): 0.065 µM | IC50 (P388/ADR; read-out: IC50): 2.04 µM | IC50 (P388/ADR; read-out: IC50 + TQ, heading: IC50 + TQ, presence of 1 μM tariquidar): 0.69 µM | IC50 (P388): 0.15 µM | IC50 (A431-G2): 0.17 µM | Response / overall survival (MES-SA/Dx5 xenografts): largely ineffective | IC50 (HCT-15): 1.2 µM | IC50 (HCC-2998): 0.181 µM | IC50 (BT-549): 0.212 µM | IC50 (CAKI-1 [3]): 0.19 µM | IC50 (SK-MEL-28): 0.242 µM | IC50 (HS 578T): 0.188 µM | Outcome of treatment at MTD (Brcal^−/−;p53^−/− tumors; DOX 5 mg/kg, PLD 8 mg/kg, FIG. 10 from Füredi et al.): all tumors developed resistance | Maximum tolerable dose (MTD) (Brcal^−/−;p53^−/− tumors; iv., FVB mice with Brcal^−/−;p53^−/− tumors): 5 mg/kg | IC50 (OVCAR-5 [4]): 0.588 µM

COc1cccc2c1C(=O)c1c(O)c3c(c(O)c1C2=O)C[C@@](O)(C(C)=O)C[C@@H]3O[C@H]1C[C@H]2[C@H](OC3CCCN32)[C@H](C)O1 (stereo partly shown) [PyDau, 2-deamino-2-pyrrolino-daunorubicin]
IC50 [5]: 0.0002 µM | IC50 (OVCAR-5 [6]): 0.00193 µM | IC50 (CAKI-1 [7]): 0.0014 µM | IC50 (SK-MEL-2 [8]): 0.00355 µM | IC50 (DU-145): 0.00131 µM | IC50 (PC-3): 0.00254 µM | IC50 (NCI/ADR-RES): 0.00138 µM | IC50 (OVCAR-3): 0.00122 µM | IC50 (A498): 0.0133 µM | IC50 (MDA-MB-435): 0.00186 µM
